Data on 19 molecules can be found in US9187492B2, “Pyripyropene derivative having ACAT2 inhibiting activity and stable to metabolizing enzymes” (School Juridical Person Kitasato Institute, priority 2010, dated 2015).

Broadly, the half-life is the time in which the quantity being followed falls by half.

SMILES strings stand for the structures. Where two headings read alike, the source gives them in different places.

A short description of data set [1]: Stability against metabolizing enzymes in the liver (hepatic microsome). The conditions noted are these: time until remaining amount reached 50%, 37° C.; for half-life at 6 μg/mL: female, Sprague-Dawley (SD), rat, liver microsomes, pH 7.4, Half-life; for Half-life: female SD rat hepatic microsome, 6 μg/mL, pH 7.4. In general terms: Liver microsomes are vesicles of endoplasmic reticulum, rich in cytochrome P450 enzymes.

For the next data set, the target named is T1, ACAT2 (Mus musculus, UniProt O88908).
T1 construct: The resulting sediment was collected as a microsome fraction; from tissue; host or cells: mouse liver (hepatic microsome membrane fraction)
T1 sequence (O88908 1-525): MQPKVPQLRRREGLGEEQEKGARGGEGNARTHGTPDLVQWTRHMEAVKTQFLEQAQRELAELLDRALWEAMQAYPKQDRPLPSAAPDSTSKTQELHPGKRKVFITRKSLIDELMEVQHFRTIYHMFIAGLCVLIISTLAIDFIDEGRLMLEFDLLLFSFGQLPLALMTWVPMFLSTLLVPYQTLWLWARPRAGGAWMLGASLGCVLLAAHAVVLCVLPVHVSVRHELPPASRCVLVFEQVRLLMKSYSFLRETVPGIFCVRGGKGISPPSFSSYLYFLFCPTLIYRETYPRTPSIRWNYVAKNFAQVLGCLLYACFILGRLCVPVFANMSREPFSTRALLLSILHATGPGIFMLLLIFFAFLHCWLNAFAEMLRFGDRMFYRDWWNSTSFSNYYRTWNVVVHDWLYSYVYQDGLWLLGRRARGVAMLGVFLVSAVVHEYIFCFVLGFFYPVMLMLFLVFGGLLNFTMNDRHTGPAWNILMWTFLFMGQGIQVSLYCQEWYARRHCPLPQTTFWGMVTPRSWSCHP
Nature of the data set: Measurement of ACAT2-inhibiting activity (murine hepatic microsome, [14C]cholesteryl oleate formation). In kind it is biochemical. The protocol:
The enzyme source which was used was a membrane fraction derived from murine hepatic microsome. Mouse livers were homogenized in buffer solution A (50 mM Tris HCl solution (pH 7.8), 1 mM ethylene diamine tetraacetate, and 1 mM phenylmethanesulfonyl fluoride) using a Potter-type homogenizer (Tokyo-Riko). The homogenate was centrifuged at 12000×g, and the supernatant was subjected to ultracentrifugation at 100000×g. The resulting sediment was collected as a microsome fraction, and this fraction was adjusted so as to have a protein concentration of 5 mg/mL using buffer solution A.
As a control, 10 μL of methanol were used in place of the pyripyropene derivative.
The chloroform layer was evaporated to dryness and was used to spot a thin layer chromatography plate (silica gel plate, Merck, 0.5 mm thickness). Elution for separation was carried out using hexane/diethyl ether/acetic acid (70:30:1, v/v) as an eluant.
wherein the background is the radioactivity of a thin layer chromatography plate which was not spotted.

The mark [2] stands for this setting: read-out: Inhibitory activity (concentration required for 50% inhibition of ACAT 2 = IC50); murine hepatic microsome membrane fraction, 5 min at 37° C.
Setting [3] is: relative to PRD 043; class symbols.
[4] abbreviates: murine hepatic microsome membrane fraction, 5 min at 37° C.; read-out: Inhibitory activity (concentration required for 50% inhibition of ACAT 2 = IC50).

As to `CC(=O)OCC1(C)C2C[C@H](OC(=O)c3ccccc3C)[C@@]3(C)Oc4cc(-c5cccnc5)oc(=O)c4[C@H](O)C3[C@@]2(C)CC[C@@H]1OC(C)=O` (some centres unmarked) [PRD007, reference compound], in data set [1], the half-life at 6 μg/mL is 1 h and the Half-life is under 1 h.

Take `CC(=O)OCC1(C)C2C[C@H](OC(=O)c3ccc(C)cc3)[C@@]3(C)Oc4cc(-c5cccnc5)oc(=O)c4[C@H](O)C3[C@@]2(C)CC[C@@H]1OC(C)=O` (some centres unmarked) [PRD009, reference compound]: in data set [1], the half-life at 6 μg/mL was 1 h and the Half-life is under 1 h.

As to `CC(=O)OCC1(C)C2C[C@H](OC(=O)C3CCCCC3)[C@@]3(C)Oc4cc(-c5cccnc5)oc(=O)c4[C@H](O)C3[C@@]2(C)CC[C@@H]1OC(C)=O` (some centres unmarked) [PRD021, reference compound], in data set [1], the half-life at 6 μg/mL is 1 h and the Half-life is under 1 h.

With `CCc1ccc(C(=O)O[C@H]2CC3C(C)(COC(C)=O)[C@@H](OC(C)=O)CC[C@]3(C)C3[C@@H](O)c4c(cc(-c5cccnc5)oc4=O)O[C@@]32C)cc1` (some centres unmarked) [PRD024, reference compound], in data set [1], the half-life at 6 μg/mL was 1 h and the Half-life is under 1 h.

In data set [1], `CC(=O)OCC1(C)C2C[C@H](OC(=O)c3cccc(Br)c3)[C@@]3(C)Oc4cc(-c5cccnc5)oc(=O)c4[C@H](O)C3[C@@]2(C)CC[C@@H]1OC(C)=O` (some centres unmarked) [PRD025, reference compound] had a half-life at 6 μg/mL of 1 h and a Half-life of under 1 h.

In data set [1], `CC(=O)OCC1(C)C2C[C@H](OC(=O)c3ccccc3F)[C@@]3(C)Oc4cc(-c5cccnc5)oc(=O)c4[C@H](O)C3[C@@]2(C)CC[C@@H]1OC(C)=O` (some centres unmarked) [PRD026, reference compound] gave a half-life at 6 μg/mL of 1 h and a Half-life of under 1 h.

As to `COc1cccc(C(=O)O[C@H]2CC3C(C)(COC(C)=O)[C@@H](OC(C)=O)CC[C@]3(C)C3[C@@H](O)c4c(cc(-c5cccnc5)oc4=O)O[C@@]32C)c1` (some centres unmarked) [PRD043, reference compound], the IC50 on ACAT2 (setting [2]) is over 10 nM. Besides, the “Specific activity ((IC50 of the test compound)/(IC50 of PRD 043))” value (“Specific activity” for short) at ACAT2 (relative to PRD 043; given as number) is listed as 1. In data set [1], this molecule yielded a half-life at 6 μg/mL of at least 9 h and a Half-life of over 9 h.

With `CC(C)C(=O)OCC1(C)C2C[C@H](OC(=O)c3ccc(C#N)cc3)[C@@]3(C)Oc4cc(-c5cccnc5)oc(=O)c4[C@H](O)C3[C@@]2(C)CC[C@@H]1OC(=O)C(C)C` (some centres unmarked) [PRD056, reference compound], at ACAT2 (setting [2]), the IC50 is over 10 nM. Besides, the “Specific activity” value at ACAT2 (setting [3]) is recorded as “− (0.1≦specific activity<1)”. Also, in data set [1], the half-life at 6 μg/mL is at least 9 h and the Half-life is over 9 h.

As for `CC(=O)O[C@H]1CC[C@@]2(C)C(C[C@H](OC(=O)c3ccc(C#N)cc3)[C@@]3(C)Oc4cc(-c5cccnc5)oc(=O)c4[C@H](O)C23)C1(C)C(=O)O` (some centres unmarked) [PRD069, 7-O-p-cyanobenzoyl-11-deacetoxymethyl-7-deacetyl-11-carboxy-pyripyropene A], the IC50 on ACAT2 (setting [4]) is under 0.5 nM. Moreover, the “Specific activity” value on ACAT2 (setting [3]) is listed as “++++ (20<specific activity)”. In data set [1], the half-life at 6 μg/mL is at least 9 h and the Half-life is given as over 9 h.

`COC(=O)C1(C)C2C[C@H](OC(=O)c3ccc(C#N)cc3)[C@@]3(C)Oc4cc(-c5cccnc5)oc(=O)c4[C@H](O)C3[C@@]2(C)CC[C@@H]1OC(C)=O` (some centres unmarked) [PRD070, 7-O-p-cyanobenzoyl-11-deacetoxymethyl-7-deacetyl-11-methoxy-carbonylpyripyropene A]: the IC50 at ACAT2 (setting [4]) lay in the range of 0.5 to 1 nM. Also, the “Specific activity” value on ACAT2 (setting [3]) is “+++ (10<specific activity≦20)”. In addition, the half-life at 6 μg/mL in data set [1] is over 9 h.

`COc1ccc(CNC(=O)C2(C)C3C[C@H](OC(=O)c4ccc(C#N)cc4)[C@@]4(C)Oc5cc(-c6cccnc6)oc(=O)c5[C@H](O)C4[C@@]3(C)CC[C@@H]2OC(C)=O)c(OC)c1` (some centres unmarked) [PRD071, 7-O-p-cyanobenzoyl-11-deacetoxymethyl-7-deacetyl-11-(2,4-dimethoxybenzylamino)carbonylpyripyropene A]: the IC50 on ACAT2 (setting [4]) was under 0.5 nM. In addition, the “Specific activity” value at ACAT2 (setting [3]) was “++++ (20<specific activity)”. Besides, in data set [1], the half-life at 6 μg/mL was at least 9 h and the Half-life is given as over 9 h.

For the molecule `COc1ccc(C(OC)O[C@H]2CC3C4(C)CO[C@@H](c5ccccc5)O[C@H]4CC[C@]3(C)C3[C@@H](O)c4c(cc(-c5cccnc5)oc4=O)O[C@@]32C)cc1` (some centres unmarked) [PRD073, 1,11-O-benzylidene-1,7,11-trideacetyl-7-O-(1-methoxy-1-p-methoxyphenyl)methylpyripyropene A], the IC50 at ACAT2 (setting [4]) fell in the range of 0.5 to 1 nM. Moreover, on ACAT2 (setting [3]), the “Specific activity” value is reported as “+++ (10<specific activity≦20)”. Further, in data set [1], the half-life at 6 μg/mL is at least 9 h and the Half-life was over 9 h.

Regarding `CC(C)C(=O)OCC1(C)C2C[C@H](OC(=O)C3CCCCC3)[C@@]3(C)Oc4cc(-c5cccnc5)oc(=O)c4[C@H](O)C3[C@@]2(C)CC[C@@H]1OC(=O)C(C)C` (some centres unmarked) [PRD074, 7-O-cyclohexanecarbonyl-1,11-O-diisobutyryl-1,7,11-trideacetylpyripyropene A], on ACAT2 (setting [4]), the IC50 lay in the range of 0.5 to 1 nM. Further, the “Specific activity” value at ACAT2 (setting [3]) was “+++ (10<specific activity≦20)”. Besides, in data set [1], the half-life at 6 μg/mL is at least 9 h and the Half-life is given as over 9 h.

Consider `CC(C)C(=O)OCC1(C)C2C[C@H](OC(=O)c3ccc([N+](=O)[O-])cc3)[C@@]3(C)Oc4cc(-c5cccnc5)oc(=O)c4[C@H](O)C3[C@@]2(C)CC[C@@H]1OC(=O)C(C)C` (some centres unmarked) [PRD079, 7-O-p-nitrobenzoyl-1,11-O-diisobutyryl-1,7,11-trideacetylpyripyropene A], for which the IC50 at ACAT2 (setting [4]) was 0.5 to 1 nM. The “Specific activity” value at ACAT2 (setting [3]) is recorded as “+++ (10<specific activity≦20)”. For the same molecule, in data set [1], the half-life at 6 μg/mL was at least 9 h and the Half-life is recorded as over 9 h.

For `CC12CO[C@@H](c3ccccc3)O[C@H]1CC[C@@]1(C)C2C[C@H](OC(=O)C2CCCCC2)[C@@]2(C)Oc3cc(-c4cccnc4)oc(=O)c3[C@H](O)C12` (some centres unmarked) [PRD080, 1,11-O-benzylidene-7-O-cyclohexanecarbonyl-1,7,11-trideacetylpyripyropene A], the IC50 at ACAT2 (setting [4]) lay in the range of 0.5 to 1 nM. Besides, on ACAT2 (setting [3]), the “Specific activity” value was “+++ (10<specific activity≦20)”. Further, the half-life at 6 μg/mL in data set [1] was over 9 h.

Regarding `CC(=O)OCC1(C)C2C[C@H](OC(=O)c3ccc(C#N)cc3)[C@@]3(C)Oc4cc(-c5cccnc5)oc(=O)c4[C@H](O)C3[C@@]2(C)CC[C@@H]1OC(=O)C(C)C` (some centres unmarked) [PRD119, 7-O-p-cyanobenzoyl-1,7-dideacetyl-1-O-isobutyrylpyripyropene A], the IC50 at ACAT2 (setting [4]) was 0.5 to 1 nM. In addition, the “Specific activity” value at ACAT2 (setting [3]) was “++++ (20<specific activity)”. In data set [1], the half-life at 6 μg/mL is at least 9 h and the Half-life was over 9 h.

In the case of `CC(=O)OCC1(C)C2C[C@H](OC(=O)c3ccc(C#N)cc3)[C@@]3(C)Oc4cc(-c5cccnc5)oc(=O)c4[C@H](O)C3[C@@]2(C)CC[C@@H]1OC(=O)c1ccccc1` (some centres unmarked) [PRD121, 7-O-p-cyanobenzoyl-1,7-dideacetyl-1-O-benzoylpyripyropene A], the IC50 on ACAT2 (setting [4]) is 0.5 to 1 nM. Also, on ACAT2 (setting [3]), the “Specific activity” value is “+++ (10<specific activity≦20)”. For the same molecule, in data set [1], the half-life at 6 μg/mL is at least 9 h and the Half-life is recorded as over 9 h.

As for `CC12CO[C@@H](c3ccccc3)O[C@H]1CC[C@@]1(C)C2C[C@H](OC(=O)c2ccccc2)[C@@]2(C)Oc3cc(-c4cccnc4)oc(=O)c3[C@H](O)C12` (some centres unmarked) [PRD122, 1,11-O-benzylidene-7-O-benzoyl-1,7,11-trideacetylpyripyropene A], the IC50 at ACAT2 (setting [4]) is 0.5 to 1 nM. Also, the “Specific activity” value at ACAT2 (setting [3]) was “+++ (10<specific activity≦20)”. In data set [1], this molecule displayed a half-life at 6 μg/mL of at least 9 h and a Half-life of over 9 h.

In the case of `CN(C)c1ccc([C@@H]2OCC3(C)C4C[C@H](OC(=O)c5ccc(C#N)cc5)[C@@]5(C)Oc6cc(-c7cccnc7)oc(=O)c6[C@H](O)C5[C@@]4(C)CC[C@@H]3O2)cc1` (some centres unmarked) [PRD123, 1,11-O-p-dimethylaminobenzylidene-7-O-p-cyanobenzoyl-1,7,11-trideacetylpyripyropene A], the IC50 at ACAT2 (setting [4]) was under 0.5 nM. Besides, the “Specific activity” value on ACAT2 (setting [3]) was “++++ (20<specific activity)”. In data set [1], this molecule came in with a half-life at 6 μg/mL of at least 9 h and a Half-life of over 9 h.
